Assay results published in patent publication US8586530B2, “Modulation of inhibition of ferrochelatase by N-methyl protoporphyrin” (University of South Florida, priority 2006, dated 2013).
Residue numbers refer to the chain shown, from its start.

Tests used:
[1] = target: T1, ferrochelatase variant P255G (Mus musculus, UniProt P22315, P308G); experiment: Transient kinetic analysis of NMPP inhibition (stopped-flow, zinc-protoporphyrin formation); assay type: biochemical, murine
T1 construct: In wild-type, murine, mature ferrochelatase, five tryptophan residues; penta-histidine tag (N); made in house; host or cells: E. coli BL21(DE3)
T1 sequence (P22315 54-422 P308G): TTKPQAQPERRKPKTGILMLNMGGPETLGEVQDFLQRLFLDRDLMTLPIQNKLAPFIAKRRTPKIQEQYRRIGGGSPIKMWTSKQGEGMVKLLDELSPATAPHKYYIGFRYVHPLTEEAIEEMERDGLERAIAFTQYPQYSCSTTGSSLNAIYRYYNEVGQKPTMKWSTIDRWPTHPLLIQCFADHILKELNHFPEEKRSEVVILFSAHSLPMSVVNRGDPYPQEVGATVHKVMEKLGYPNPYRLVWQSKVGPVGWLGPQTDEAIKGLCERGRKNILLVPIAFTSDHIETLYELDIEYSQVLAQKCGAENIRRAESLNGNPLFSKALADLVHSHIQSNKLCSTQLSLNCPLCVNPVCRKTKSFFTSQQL
Experimental: (§1) Enzyme (0.5 μM) was reacted with protoporphyrin (5 μM) and zinc-acetate (15 μM) in the presence of various concentrations of NMPP. The pseudo first-order rate constant k was obtained from analysis of the time course (see Materials and Methods and FIG. 4) and plotted against NMPP concentration. The enzymes used in each set were: A. wild-type ferrochelatase; B. variant P255R; C. variant P255G.
The pseudo-first order rate constant dependence on NMPP concentration was best described by equation 2:
[formula] and k−1 are the forward and reverse rate constants, respectively.
Although NMPP binding to P255G occurred via a one-step reaction, the values for the rate constants associated with this step (k1 and k−1) were similar to those determined for the rate-limiting step of the kinetic pathway for inhibition of ferrochelatase and P255R by NMPP.
Transient Kinetic Analysis. The kinetic steps involved in NMPP binding to ferrochelatase were assessed using stopped-flow absorption spectroscopic analysis by monitoring the enzymatic reaction in the presence of various concentrations of the inhibitor NMPP. The reactions were performed using a rapid scanning stopped-flow spectrophotometer (model RSM-1000; OLIS Inc.), equipped with a stopped-flow mixer and an observation chamber with an optical path-length of 4 mm. The dead time of the instrument is ˜2 ms. […] Enzymatic activity was monitored by following the increase in absorbance at 420 nm for zinc-protoporphyrin production using Zn^2+ and protoporphyrin as substrates.
The enzyme and substrate stock solutions were diluted in 100 mM Tris-acetate, pH 8.0, containing 0.5% Tween-80. […] The enzymatic reaction was initiated by mixing the contents from both syringes and reaction progression was monitored by following the increase in absorbance at 420 nm. The data were analyzed by fitting the observed absorbance values to equation 4:
[formula] where A is the observed absorbance, A0 is the initial absorbance, vs is the steady-state velocity, v0 is the initial velocity and k is the pseudo-first order rate constant for inhibitor binding. […]

[2] = target: T2, ferrochelatase variant P255R (Mus musculus, UniProt P22315, P308R); experiment: as above; assay type: biochemical, murine
T2 construct: In wild-type, murine, mature ferrochelatase, five tryptophan residues; penta-histidine tag (N); made in house; host or cells: E. coli BL21(DE3)
T2 sequence (P22315 54-422 P308R): T1 sequence (P22315 54-422 P308G) with G255R
Experimental: as §1
In order to obtain the pseudo first-order rate constants for NMPP binding, the kinetic traces for zinc-protoporphyrin formation in the presence of various concentrations of inhibitor were fitted to equation 3. […] The data were fit to equation 1 for a two step process:
[formula] where k is the pseudo first-order rate constant for the approach to the steady-state phase, I0 is the inhibitor concentration, S0 is the initial substrate concentration,
[formula] is the apparent inhibition constant, Ki^app, and k2 and k−2 are the second step forward and reverse rate constants, respectively. […] A two kinetic step process for binding of NMPP to either wild-type ferrochelatase or P255R (i.e., a fast, initial step for NMPP binding to the enzyme, followed by a slow step, possibly related to a conformational rearrangement of the protein-inhibitor complex) is consistent with the porphyrin-triggered conformational change of the active-site pocket deduced from the analysis of the crystal structure of B. subtilis ferrochelatase with bound N-methyl mesoporphyrin in comparison with that of the unliganded protein. […] Therefore the diminished inhibition of variant P255R by NMPP (Ki^app=1 μM vs. Ki^app=3 nM for wild-type ferrochelatase) cannot be accounted for by differences in these rates.
Transient Kinetic Analysis. The kinetic steps involved in NMPP binding to ferrochelatase were assessed using stopped-flow absorption spectroscopic analysis by monitoring the enzymatic reaction in the presence of various concentrations of the inhibitor NMPP. The reactions were performed using a rapid scanning stopped-flow spectrophotometer (model RSM-1000; OLIS Inc.), equipped with a stopped-flow mixer and an observation chamber with an optical path-length of 4 mm. The dead time of the instrument is ˜2 ms. Scan spectra spanning the wavelength range of 347 to 574 nm were collected at a rate of 1000 scan/sec. The syringes containing the reaction components and the stopped-flow cell were maintained at 30° C. using an external water-bath. The concentrations of reagents loaded into each syringe were two-fold greater than the final concentrations in the observation chamber. Enzymatic activity was monitored by following the increase in absorbance at 420 nm for zinc-protoporphyrin production using Zn^2+ and protoporphyrin as substrates.
The enzyme and substrate stock solutions were diluted in 100 mM Tris-acetate, pH 8.0, containing 0.5% Tween-80. The stock solutions for substrates and inhibitor were prepared as follows: A 3 mM zinc-acetate solution was made by dissolving zinc-acetate in distilled and deionized H2O. A 200 μM protoporphyrin solution was prepared by dissolving protoporphyrin 1× in 50 mM NH4OH containing 0.5% Tween-80. A 2 mM NMPP solution was prepared by dissolving NMPP in 100 mM NH4OH containing 0.5% Tween-80. Typically, a 2 mL solution that was 1 μM in ferrochelatase and 10 μM in protoporphyrin was pre-incubated on ice for 30 min. The porphyrin-enzyme solution was titrated with NMPP. The mixture was subsequently transferred to one of the stopped-flow syringes. The other stopped-flow syringe was loaded with a reaction buffer solution of ˜2 mL that was 30 μM in zinc-acetate. The enzymatic reaction was initiated by mixing the contents from both syringes and reaction progression was monitored by following the increase in absorbance at 420 nm. The data were analyzed by fitting the observed absorbance values to equation 4: […]

## N-methyl protoporphyrin [NMPP]
[1]
  forward rate constant (one-step binding): 8.2e+06 M⁻¹ s⁻¹
  reverse rate constant k−1 (one-step binding): 18.7 s⁻¹
[1]; one-step fit (equation 2), from the rate constants, read-out: apparent inhibition constant Ki^app
  Ki: 2.3 µM
[2]
  second step forward rate constant k2: 8.3 s⁻¹
  second step reverse rate constant k−2: 19.3 s⁻¹
[2]; two-step fit (equation 1), read-out: apparent inhibition constant Ki^app
  Ki: 1 µM
